According to patent US20050090466A1, “Inhibitors of PACE4 for the treatment of arthritis” (Pharmacia & Upjohn Company LLC, priority 2003, published 2005):

How the values were obtained:
PACE4 mRNA [1] = assay: Electrophoresis gel of aggrecan degradation products in TNF/OSM treated cartilage explants; assay type: cell-based, human; details: 100 nM dsRNA, vs controls, FIG. 2
Procedure: FIG. 2 depicts an electrophoresis gel showing aggrecan-degradation products in untreated (lane 1), TNF/OSM treated control (lane 2) and TNF/OSM treated, PACE4 siRNA treated cartilage explants; and
(§1) The sequence CGGCAAUGAUUAUGACCCAtt (SEQ ID NO. 2) was selected as a sense strand for dsRNA. The corresponding antisense strand, UGGGUCAUAAUCAUUGCCGtt, (SEQ ID NO. 3) was also selected. dsRNA was synthesized commercially (Ambion, Austin, Tex. 78744-1832 USA) and 100 nM was introduced into cultured human chondrocytes and human cartilage stimulated with TNF-α and Oncostatin M (OSM). It is known that stimulation of cartilage or chondrocytes with TNF-α and OSM will induce cartilage degradation and upregulate aggrecanase. Nonsense dsRNA, that is, dsRNA with the same […], but scrambled in sequence, were introduced into cultured human chondrocytes and human cartilage explants as controls. The control groups are not expected to induce RNAi, since the dsRNA is not expected to produce an inhibitory effect on mRNA. […] 2 and SEQ ID NO. 3.
Referring now to FIG. 2, the aggrecanase mediated cleavage of aggrecan, shown by the aggrecan derived peptide neopitope fragment AGEG (SEQ ID NO. 10) and the aggrecan derived peptide neopepitope fragment ARGS (SEQ ID NO. 11) was reduced with interfering dsRNA, as compared to controls.

PACE4 mRNA [2] = assay: Glycosaminoglycan (GAG) release from TNF/OSM treated cartilage explants into the supernatant; assay type: cell-based, human; details: 100 nM dsRNA, vs nonsense dsRNA, FIG. 3
Excerpt: FIG. 3 is a bar graph showing glycosaminoglycan (GAG) release from cartilage explants into the supernatant is reduced in TNF/OSM treated cartilage explants with the addition of siRNA of SEQ ID NO. 2 and SEQ ID NO. 3 (narrow shaded bar) as compared with normal control (unshaded bar) and TNF/OSM treated cartilage explants with nonsense dsRNA.
as §1
Glycosaminoglycan (GAG) release from proteoglycan and depressed proteoglycan synthesis are thought to be correlated with cartilage destruction in arthritis. […]

PACE4 mRNA [3] = assay: Aggrecanase activity in TNF-α and OSM stimulated cultured human chondrocytes after PACE4 RNAi; assay type: cell-based; details: 100 nM dsRNA; human chondrocytes stimulated with TNF-α and OSM; vs stimulated controls; FIG. 1
Procedure: as §1

Substance: siRNA of SEQ ID NO. 2 and SEQ ID NO. 3: dsRNA: sense strand CGGCAAUGAUUAUGACCCAtt (SEQ ID NO. 2), antisense strand UGGGUCAUAAUCAUUGCCGtt (SEQ ID NO. 3); inhibits PACE4 mRNA (sense CGGCAAUGAUUAUGACCCATT; antisense UGGGUCAUAAUCAUUGCCGTT; dsRNA with lower-case tt overhangs, chemistry of tt not given here, further chemistry not given here)
- aggrecanase mediated cleavage of aggrecan (neoepitope fragments AGEG and ARGS) (PACE4 mRNA [1]): reduced
- glycosaminoglycan (GAG) release from cartilage explants into the supernatant (PACE4 mRNA [2]): reduced
- reduction in aggrecanase activity (PACE4 mRNA [3]): greater than eighty percent reduction
